Assay [1] has as its system murine B-ALL cells. The assay is described as follows: Combinational drug regimens in the murine leukemic niche model. The assay is classed as cell-based. Conditions: 5 μg/mL AMD, 1 μg/mL BIO or 10 μM BAY combined with NIL, PRE or VCR for 48 hr. The method, then: The 3D biomimetic leukemic niche model was exploited to test the combinational drug regimens in vitro. Generally, the murine leukemic niche models were cultured for 24 hr after fabrication, then respectively administrated with various pharmaceuticals [i.e. 5 μg/mL AMD3100 (AMD), 1 μg/mL BIO5192 (BIO), and 10 μM BAY 11-7082 (BAY), correspondingly], and concomitantly treated with 1 μM NIL, 1 μM PRE or 0.1 μM VCR for 48 hr. The viability of B-ALL cells was measured by the DAPI staining as described above.
The following investigation concerned whether co-targeting niche-derived pro-survival signals (CXCR4/CXCL12, VCAM-1/VLA-4, and NF-κB signaling) using either CXCR4 inhibitor (AMD), VLA-4 inhibitor (BIO), or NF-κB inhibitor (BAY) could improve the responsiveness of B-ALL-targeting chemotherapeutics. B-ALL blasts and niche cells (containing ECs and MSCs) were co-cultured for 24 hr in the Leukemia-on-a-Chip, and then administered individual niche-targeting compounds in combination with either NIL, PRE or VCR for 48 hr, after which B-ALL cell viability was measured. […] The lack of response to VLA-4 treatment may be due to VLA-4 blockade broke the leukemia dormancy to compensate the B-ALL death.

A further assay deals with NF-κB. The assay is described as follows: NF-κB activation (nuclear translocation) in B-ALL cells in Leukemia-on-a-Chip. Conditions: B-ALL cells with niche cells. The assay is classed as cell-based, murine. The text has this: FIG. 8A through FIG. 8J depicts the results of niche cells promoting leukemia progression via cytokine and adhesive signaling. (FIG. 8A) The regional CXCR4 distribution on murine B-ALL cells cultured with or without niche cells. (FIG. 8B) The quantified result corresponding to (FIG. 8A). (FIG. 8C) Membrane-based ELISA analysis of CXCL12 expression level of niche cells (ECs and MSCs). (FIG. 8D) The quantified result corresponding to (FIG. 8C). (FIG. 8E) The representative image showing B-ALL cells co-localized with niche cells via VCAM-1/VLA-4 signaling. (FIG. 8F) The representative images showing nuclear translocation of NF-κB in B-ALL cells. (FIG. 8G) NF-κB activation in B-ALL cells with or without niche cells and under treatments with CXCR4 inhibitor, AMD3100 (AMD) and VLA-4 inhibitor, BIO5192 (BIO). The ratios were manually quantified from 3 experimental replicates (N>200). One-way ANOVA followed by Tukey's post hoc test. […] (FIG. 8I) The quantification of NF-κB activation in human NALM-6, 697, RS(4; 11), and UOCB1 blasts within their leukemia niches. The ratios were manually measured from 3 experimental replicates (N>150). (FIG. 8J) The quantification of NF-κB activation in patient-derived B-ALL blasts within engineered leukemia niches. The ratios for various B-ALL blasts were manually measured from 3 technical replicates (N>20). […]

Assay [2] deals with murine Ph+ B-ALL cells. The assay is described as follows: Drug resistance testing: B-ALL cell viability in 3D hydrogel devices (Calcein-AM/DAPI). Type of assay: cell-based. Conditions: NF-κB blockade.
Assay [3] has as its system murine B-ALL cells. The assay is described as follows: B-ALL cell adhesion onto niche cells with or without adhesion blockade. The assay is classed as cell-based. Conditions: VLA-4 blockade; 24 hours on niche cell monolayer. The method, then: (FIG. 11A) Experimental setup for testing murine B-ALL cell adhesion onto niche cells [i.e. ECs (C166), MSCs (OP9), and osteoblasts (MC3T3)] with or without adhesion blockade. B-ALL cells were plated into the dishes with niche cell monolayer and cultured for 24 hours, followed by five times washing with warm PBS. The images were then taken with 20× objective. (FIG. 11B) Adhered B-ALL cells were manually counted and plotted as cell number per filed. Each condition has 3 replicates with >10 images being counted. One-way ANOVA followed by Tukey's post hoc test (n.s., not significant, *p<0.05, **p<0.01).

The test system of assay [4] is murine Ph+ B-ALL cells. Put plainly: Drug resistance testing: B-ALL cell viability in 3D hydrogel devices (Calcein-AM/DAPI). The assay is classed as cell-based. Conditions: NIL 1 μM, PRE 1 μM, VCR 0.1 μM; for viability of B-ALL cells in perivascular versus endosteal niche: 2-day treatment; for B-ALL eradication (viability): absence of niche cells; for B-ALL eradication (viability) / B-ALL drug-induced cell death (chemo-resistance): 48 hr; for B-ALL drug-induced cell death (chemo-resistance): presence of niche cells. The method, then:
The outcome of drugs was defined by the viability of B-ALL cells as a cytotoxic end point after drug treatment. B-ALL cells were cultured alone or co-cultured with niche cells in 3D hydrogel devices for 24 hr, and then incubated with 1 μM nilotinib (NIL, Cayman Chemical), 1 μM prednisone (PRE, Sigma), and 0.1 μM vincristine (VCR, Sigma) for 48 hr. The cell viability was quantitatively determined by using Calcein-AM (Thermo Fischer Scientific) and DAPI, which respectively stained the live and dead cells. Briefly, cells were rinsed thrice with PBS and incubated with Calcein-AM and DAPI ([…] and 5 μg/mL in PBS or medium) solution for 30 min at 37° C., followed by a final rinse with PBS. Afterward, cells were observed under a fluorescence microscope, and cellular viability was quantitatively measured by counting the number of objects in the green (live cells) and red (dead cells) channels. Untreated groups of B-ALL cells were used as controls to benchmark the drug resistance of different groups.

For the compound `c1cc(CN2CCCNCCNCCCNCC2)ccc1CN1CCCNCCNCCCNCC1` [AMD3100], the “responsiveness of B-ALL blasts to tumor-targeting agents (B-ALL killing) on niche co-targeting” value (“responsiveness of B-ALL blasts” for short) with murine B-ALL cells [1] is given as “significantly reversed the chemo-protective activity of niche cells”. For the same compound, in the assay with NF-κB, the “nuclear translocation of NF-κB in B-ALL cells” value is given as “suppressed the nuclear translocation of NF-κB in B-ALL cells”.

Consider `Cc1ccc(S(=O)(=O)/C=C/C#N)cc1` [BAY 11-7082], for which the “B-ALL survival (cell viability)” value with murine Ph+ B-ALL cells [2] (absence of niche cells) is given as “significantly decreased B-ALL survival”; in the assay with murine Ph+ B-ALL cells [2] (co-culture with niche cells), “partially rescued B-ALL cell survival from BAY treatment”. For the same compound, the “responsiveness of B-ALL blasts” value in the assay on murine B-ALL cells [1] is “significantly reversed the chemo-protective activity of niche cells”.

With `Cc1ccccc1NC(=O)Nc1ccc(CC(=O)N(C)[C@@H](CC(C)C)C(=O)NCC[C@H](NC(=O)[C@@H]2CCCN2S(=O)(=O)c2cc(Cl)cc(Cl)c2)C(=O)O)cc1` [BIO5192], the “responsiveness of B-ALL blasts” value in the assay with murine B-ALL cells [1] is recorded as “no significant effect on the responsiveness of B-ALL blasts to tumor-targeting agents”. In the assay with murine B-ALL cells [3], the “intercellular adhesion of B-ALL cells onto niche cells” value is on record as “significantly decrease the intercellular adhesion of B-ALL cells onto niche cells”. Besides, in the assay on NF-κB, the “nuclear translocation of NF-κB in B-ALL cells” value is reported as “suppressed the nuclear translocation of NF-κB in B-ALL cells”.

As for `Cc1cn(-c2cc(NC(=O)c3ccc(C)c(Nc4nccc(-c5cccnc5)n4)c3)cc(C(F)(F)F)c2)cn1` [nilotinib], in the assay with murine Ph+ B-ALL cells [4], the “viability of B-ALL cells in perivascular versus endosteal niche” value is “a stronger dormancy and chemo-resistance of B-ALL cells in the endosteal niche”; the “B-ALL eradication (viability)” value is recorded as “efficient B-ALL eradication”; the “B-ALL drug-induced cell death (chemo-resistance)” value (shortened to “B-ALL drug-induced cell death”) is listed as “chemo-resistance phenomenon was confirmed”. The “B-ALL drug-induced cell death” value in the assay on murine Ph+ B-ALL cells [4] (listed as NIL) was “partial rescue of drug-induced cell death”.

On to `C[C@]12C=CC(=O)C=C1CC[C@@H]1[C@@H]2C(=O)C[C@@]2(C)[C@H]1CC[C@]2(O)C(=O)CO` [prednisone], for which, in the assay on murine Ph+ B-ALL cells [4], the “viability of B-ALL cells in perivascular versus endosteal niche” value was “a stronger dormancy and chemo-resistance of B-ALL cells in the endosteal niche”; the “B-ALL eradication (viability)” value is “efficient B-ALL eradication”; the “B-ALL drug-induced cell death” value was “chemo-resistance phenomenon was confirmed”. Besides, the “B-ALL drug-induced cell death” value with murine Ph+ B-ALL cells [4] (listed as PRE) is “partial rescue of drug-induced cell death”.

The values above are taken from patent publication US20240198337A1, “Bone Marrow on a Chip” (NEW YORK UNIVERSITY, priority 2021, published 2024).
